Experimental findings from US11793741B2, “Topical composition” (Conopco, Inc., priority 2017, dated 2023) are described below.

This experiment concerns psoriasin. As to the kind of experiment: Generation of psoriasin (AMP marker) by human keratinocytes, ELISA of cell culture supernatant. It counts as cell-based. To be noted: NHEK cells, 72 hours; for Fold change in psoriasin levels over control: control (Example A) = 1. On the procedure: The experiment was done with the above-mentioned cells with passage between 3 and 4. The cells were seeded (35,000 cells/well) in 24 well plate with keratinocyte growth media (KGM) obtained from Invitrogen®. The plate was then incubated at 37±2° C. in a CO2 incubator for 48 hours. Step 2: After 48 hours of incubation, cell differentiation was induced by replacing media with fresh KGM supplemented with 2 mM calcium chloride solution. This was then followed by incubation at 37±2° C. in a CO2 incubator for 48 hours. Step 3: After that, the cells were treated with niacinamide and the compound of formula I, i.e. N-cyclopropyl nicotinamide, in varying concentration as outlined in table 1 below with keratinocyte growth media supplemented with 2 mM calcium chloride solution. Step 4: After the above treatment, cells were again incubated at 37±2° C. in a CO2 incubator for 72 hours. Step 5: After 72 hours of incubation, cell culture supernatant from each well was collected in a sterile tube. The samples were then stored at −80° C. until used for testing psoriasin secretion by standard ELISA technique using psoriasin ELISA kit obtained from Circulx® (No: CY-8073). In the current experiment, psoriasin was used as a marker for AMP. Step 6: The ELISA method was performed by using 100 μL of cell culture supernatant from each sample. The data is expressed in terms of fold change over control (no treatment: Example A). The fold change in psoriasin levels in case of control (example A) is taken to be equal to 1 fold. Any fold change in psoriasin obtained due to treatments outlined in all the other examples was over and above the 1 fold change obtained from the control.
In general terms: An ELISA detects its analyte on a solid surface through an enzyme-linked reagent.

As for `O=C(NC1CC1)c1cccnc1` [Example 1, N-cyclopropyl nicotinamide], the “Fold change in psoriasin levels over control” value (“Fold change … over control” for short) (100 μg/mL active) is listed as 1.61 fold, the “Fold change … over control” value (250 μg/mL active) turned out to be 1.88 fold and the “Fold change … over control” value (500 μg/mL active) turned out to be 2.16 fold.

With `NC(=O)c1cccnc1` [Example B, Niacinamide], the “Fold change in psoriasin over and above 1 fold of the control” value (100 μg/mL active) was 0.26 fold. In addition, the “Fold change … over control” value is, setting by setting: (100 μg/mL active) 1.26 fold; (250 μg/mL active) 1.50 fold; (500 μg/mL active) 1.44 fold.
